Experimental data: patent US11535597B2, “Photoreactive ligands and uses thereof” (The Scripps Research Institute, priority 2017, dated 2022)
Entries after “also recorded” stand apart in the source; their conditions may differ. Each block holds one compound with its values, some of them ahead of it.

Key:
cathepsin B (CTSB) = target: T1, cathepsin B (CTSB) (Homo sapiens, UniProt P07858); experiment: Mapping and competition of FFF probe-modified peptide on cathepsin B (CTSB); assay type: binding; conditions: HEK293T cells co-treated with 9 (200 μM)
T1 construct: endogenous in cells; host or cells: HEK293T
Protocol: (§1) Preparation and analysis was adapted from methods previously reported. In brief, for global mapping of fragment probe-modified peptides, separate 10 cm dishes of cells were treated with probes (200-250 μM) in 3.0 mL of DMEM (serum-free) and (if applicable) competitor ligands, proteomes harvested and subjected to click chemistry conditions with either light or heavy isotopically labeled biotin-TEV-azide (10 μL of 5 mM stocks in DMSO, final concentration=100 μM), TCEP, ligand and CuSO4 as detailed above. The samples were allowed to react for 1 h at which point the samples were centrifuged (16,000 g, 5 min, 4° C.). The resulting pellets were sonicated in ice-cold methanol (500 μL) and the resuspended light- and heavy-labeled samples were then combined and centrifuged (16,000 g, 5 min, 4° C.). The pellets were then solubilized in PBS containing 1.2% SDS (1 mL) with sonication and heating (5 min, 95° C.). Samples were transferred to falcon tubes containing DPBS (5 mL), to which a 100 μL of streptavidin-agarose beads slurry was added. […]
(§2) The resulting probe-modified peptides were collected for MS analysis, which was performed as described above with differences in the salt bumps applied in the chromatographic gradients which in this case were 0%, 30%, 60%, 90% and 100% NH4OAc (500 μM). […] The isoTOP ratios for probe labeled peptides were quantified using the in-house software CIMAGE. […]

[1] = system: proteins in HEK293T cells; experiment: MS-based mapping of FFF probe-modified peptides (isoTOP, sites of labeling); assay type: binding, human
Protocol: (§3) Preparation and analysis was adapted from methods previously reported. In brief, for global mapping of fragment probe-modified peptides, separate 10 cm dishes of cells were treated with probes (200-250 μM) in 3.0 mL of DMEM (serum-free) and (if applicable) competitor ligands, proteomes harvested and subjected to click chemistry conditions with either light or heavy isotopically labeled biotin-TEV-azide (10 μL of 5 mM stocks in DMSO, final concentration=100 μM), TCEP, ligand and CuSO4 as detailed above. The samples were allowed to react for 1 h at which point the samples were centrifuged (16,000 g, 5 min, 4° C.). The resulting pellets were sonicated in ice-cold methanol (500 μL) and the resuspended light- and heavy-labeled samples were then combined and centrifuged (16,000 g, 5 min, 4° C.). The pellets were then solubilized in PBS containing 1.2% SDS (1 mL) with sonication and heating (5 min, 95° C.). Samples were transferred to falcon tubes containing DPBS (5 mL), to which a 100 μL of streptavidin-agarose beads slurry was added. After incubation, the beads (3 hr) were pelleted by centrifugation (1,400 g, 3 min) and were washed (2×10 mL PBS and 2×10 mL water). The beads were transferred to eppendorf tubes with 1 mL DPBS, centrifuged (1,400 g, 3 min), and resuspended in PBS containing 6 M urea. To this was added 10 mM DTT (25 μL of a 200 mM stock in water) and the beads were incubated at 65° C. for 15 mins. 20 mM iodoacetamide (25 μL of a 400 mM stock in water) was then added and allowed to react at 37° C. for 30 mins with shaking. The bead mixture was diluted with 900 μL PBS, pelleted by centrifugation (1,400 g, 3 min), and resuspended in 200 μL 2M urea (DPBS) containing trypsin and CaCl2 as described above. The beads were separated from the digest by centrifugation (1,000 g, 1 min), washed (2×1 mL PBS and 2×1 mL water) and then transferred to fresh eppendorfs with 1 mL water. The washed beads were washed once further in 150 μL TEV buffer (50 mM Tris, pH 8, 0.5 mM EDTA, 1 mM DTT) by centrifugation (1,400 g, 3 min) and the resuspended in 150 μL TEV buffer. 5 μL TEV protease (80 μM) was added and the reactions were rotated overnight at 29° C. The TEV digest was separated from the beads by centrifugation (1,400 g, 3 min) and the beads were washed once with water (100 μL). The samples were then acidified to a final concentration of 5% (v/v) formic acid and stored at −80° C. prior to analysis.
The resulting probe-modified peptides were collected for MS analysis, which was performed as described above with differences in the salt bumps applied in the chromatographic gradients which in this case were 0%, 30%, 60%, 90% and 100% NH4OAc (500 μM). The protein identification searches of the MS data were performed with the following changes applied to identify the peptides modified with the corresponding fragment probe and the cleaved TEV tag. All amino acids were considered as possible residues for modification. To facilitate the computational searches, sets of up to 3 amino acids were searched using ProLuCID and filtered with DTASelect as described above. […] The isoTOP ratios for probe labeled peptides were quantified using the in-house software CIMAGE.
For each protein in the site-of-labeling dataset, the UniProtKB accession number was used to map and collect relevant structures from the RCSB Protein Data Bank (PDB) fulfilling the following criteria: structures determined by X-ray crystallography, wild-type protein, Homo sapiens as the sole source organism. […] Fpocket 2.0 was used to detect potential binding pockets for the resultant structures with all parameters set at recommended default. Pockets with volume less than 500 Å^3 were removed from output prior to further analysis. Residues surrounding fpocket predicted binding pockets for each protein were collected to determine the number of residues overlapping with isoTOP peptides.

α-galactosidase (GLA) = target: T2, α-galactosidase (GLA) (Homo sapiens, UniProt P06280); experiment: Mapping of FFF probe-modified peptides on α-galactosidase (GLA); assay type: binding
T2 construct: endogenous in cells; host or cells: human cells (HEK293T; a subset of probes also in K562)
T2 sequence (P06280 32-429): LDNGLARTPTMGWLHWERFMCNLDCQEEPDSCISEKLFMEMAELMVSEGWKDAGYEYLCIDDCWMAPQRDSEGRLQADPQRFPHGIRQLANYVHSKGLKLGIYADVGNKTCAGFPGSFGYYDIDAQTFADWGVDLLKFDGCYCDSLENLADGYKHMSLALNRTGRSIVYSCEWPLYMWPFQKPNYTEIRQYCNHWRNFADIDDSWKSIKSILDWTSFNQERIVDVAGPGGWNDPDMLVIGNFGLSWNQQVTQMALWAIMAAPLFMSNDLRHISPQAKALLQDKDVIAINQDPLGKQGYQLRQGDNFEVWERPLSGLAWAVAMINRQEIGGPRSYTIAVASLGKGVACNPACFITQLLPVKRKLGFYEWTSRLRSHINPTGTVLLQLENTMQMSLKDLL
Protocol: as §3, §2

PTGR2 = PTGR2 (Homo sapiens, UniProt Q8N8N7); experiment: Mapping and competition of FFF 8-modified tryptic peptides on PTGR2; assay type: binding; conditions: near the active site
Chain of PTGR2 (Q8N8N7 whole entry): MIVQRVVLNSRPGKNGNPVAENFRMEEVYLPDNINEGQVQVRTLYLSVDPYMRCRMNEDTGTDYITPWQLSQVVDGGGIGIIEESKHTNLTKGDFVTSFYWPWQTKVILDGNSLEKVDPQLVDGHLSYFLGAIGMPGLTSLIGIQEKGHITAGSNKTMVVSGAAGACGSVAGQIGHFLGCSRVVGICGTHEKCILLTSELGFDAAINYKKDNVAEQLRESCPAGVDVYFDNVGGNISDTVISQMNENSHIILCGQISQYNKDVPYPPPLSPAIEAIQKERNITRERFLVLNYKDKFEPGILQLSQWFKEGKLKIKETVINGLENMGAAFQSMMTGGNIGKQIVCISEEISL
Protocol: as §1, §2

blockade of probe 9 interaction with CTSB (cathepsin B (CTSB)): blocked
SMILES: CC(NC(=O)[C@H](Cc1ccccc1)NC(=O)OCc1ccccc1)C(=O)CF (stereo partly shown) [Z-FA-FMK, reference compound]

Labeled Peptide of GLA Alpha-galactosidase A (α-galactosidase (GLA); Accession P06280, residues of probe-labeled peptide, family Enzymes): 68-82 | Labeled Peptide (α-galactosidase (GLA); P06280 GLA Alpha-galactosidase A): 68-82 | Labeled Peptide (α-galactosidase (GLA); protein GLA Alpha-galactosidase A, residues of probe-labeled peptide): 68-82
SMILES: C#CCCC1(CCC(=O)NCc2ccc3sccc3c2)N=N1 [probe 4, N-(Benzo[b]thiophen-5-ylmethyl)-3-(3-(but-3-yn-1-yl)-3H-diazirin-3-yl)propanamide]
Labeled Peptide of HCCS Cytochrome c-type heme lyase ([1]; Accession P53701, residues of probe-labeled peptide, family Enzymes): 200-210 | Labeled Peptide ([1]; HNRNPK Heterogeneous nuclear ribonucleoprotein K, residues of probe-modified peptide): 423-433 | Labeled Peptide ([1]; IDE Insulin-degrading enzyme, residues of probe-modified peptide): 312-324 | Labeled Peptide ([1]; NUP93 (Q8N1F7), residues of the probe-labeled peptide): 539-545 | Labeled Peptide ([1]; P07195 LDHB L-lactate): 234-244 | Labeled Peptide ([1]; P22830 FECH Fen-ochelatase, mitochondrial): 254-272 | Labeled Peptide ([1]; protein BCAS2 (O75934), residues of probe-labeled peptide): 137-151 | Labeled Peptide ([1]; protein CPT2 Carnitine O-palmitoyltransferase 2, mitochondrial (P23786), residues of probe-labeled peptide): 478-495 | Labeled Peptide ([1]; protein EMD Emerin (P50402), residues of probe-labeled peptide): 212-221 | Labeled Peptide ([1]; protein FECH Ferrochelatase, mitochondrial (P22830), residues of probe-labeled peptide): 254-272 | Labeled Peptide ([1]; protein FECH Ferrochelatase, mitochondrial, residues of probe-labeled peptide): 254-272 | Labeled Peptide ([1]; protein LDHB L-lactate dehydrogenase B chain, residues of the probe-labeled peptide): 234-244 | Labeled Peptide ([1]; protein P42166 TMPO Lamina-associated polypeptide 2, isoform alpha): 621-637 | Labeled Peptide ([1]; protein PGRMC2 Membrane-associated progesterone receptor component (O15173)): 136-149 | Labeled Peptide ([1]; protein PSMD11 26S proteasome non-ATPase regulatory subunit 11 (O00231)): 298-304 | Labeled Peptide ([1]; protein Q14166 TTLL12): 254-287 | Labeled Peptide ([1]; residues of probe-labeled peptide on TUBB6 Tubulin beta-6 chain, Accession # Q9BUF5): 217-241

probe-modified tryptic peptides in PTGR2 (PTGR2): aa 55-66; also recorded: aa 261-278
SMILES: C#CCCC1(CCC(=O)N2CCC(c3ccccc3)CC2)N=N1 [probe 8, 3-(3-(But-3-yn-1-yl)-3H-diazirin-3-yl)-1-(4-phenylpiperidin-1-yl)propan-1-one]
Labeled Peptide of HNRNPA1 Heterogeneous nuclear ribonucleoprotein A1 ([1]; Accession P09651, residues of probe-labeled peptide, family Channels, Transporters, Receptors): 233-265 | Labeled Peptide of HIST1H1C Histone H1.2 ([1]; Accession P16403, residues of probe-labeled peptide, family Transcription factors, Regulators): 65-75 | Labeled Peptide ([1]; MKI67 (P46013), residues of the probe-labeled peptide): 648-659 | Labeled Peptide ([1]; protein BAG6 (P46379), residues of probe-labeled peptide): 332-344 | Labeled Peptide ([1]; protein CCT8 T-complex protein 1 subunit theta (P50990), residues of probe-labeled peptide): 441-450 | Labeled Peptide ([1]; protein CDC37 Hsp90 co-chaperone Cdc37 (Q16543), residues of probe-labeled peptide): 287-307 | Labeled Peptide ([1]; protein DHX9 ATP-dependent RNA helicase A (Q08211), residues of probe-labeled peptide): 121-141 | Labeled Peptide ([1]; protein Q14683 SMC1A Structureal maintenance of chromosomes protein 1A): 1070-1086 | Labeled Peptide ([1]; residues of probe-labeled peptide on UBAP2L Ubiquitin-associated protein 2-like, Accession # Q14157): 239-257
